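Interpolation was linear, between the two tested concentrations surrounding the appropriate level; five concentrations were tested over 48 hours in 96-well plates. At the GI50, growth is halved.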 Active and inactive are the calls of the source. No stated cut-off is given here; in the data, active = GI50 up to about 1.1 µM and inactive = higher.
Experiments:
Assay in all cases: DTP human tumour cell line panel, 48 h
CAKI-1 = tested on: CAKI-1
COLO 205 = tested on: COLO 205
DU-145 = tested on: DU-145
HCT-15 = tested on: HCT-15
HL-60 = tested on: HL-60
Hs-578T = tested on: Hs-578T
IGROV-1 = tested on: IGROV-1
KM12 = tested on: KM12
MDA-N = tested on: MDA-N
NCI-H522 = tested on: NCI-H522
OVCAR-3 = tested on: OVCAR-3
RPMI-8226 = tested on: RPMI-8226
RXF 393 = tested on: RXF 393
SF-268 = tested on: SF-268
SK-MEL-5 = tested on: SK-MEL-5
SN12C = tested on: SN12C
SR = tested on: SR
SW-620 = tested on: SW-620
TK-10 = tested on: TK-10

Compound | GI50 (CAKI-1) | GI50 (COLO 205) | GI50 (DU-145) | GI50 (HCT-15) [µM] | GI50 (HL-60) | GI50 (Hs-578T) | GI50 (IGROV-1) | GI50 (KM12) | GI50 (MDA-N) | GI50 (NCI-H522) | GI50 (OVCAR-3) | GI50 (RPMI-8226) | GI50 (RXF 393) | GI50 (SF-268) | GI50 (SK-MEL-5) | GI50 (SN12C) | GI50 (SR) | GI50 (SW-620) | GI50 (TK-10)
COC(=O)c1csc([C@@H](OC(=O)[C@H](C)[C@H](CCCC(C)(Cl)Cl)OC(=O)c2csc([C@H](O)CO)n2)C(C)C)n1 | 17.7 µM (inactive) | 17.8 µM (inactive) | 12.3 µM (inactive) | 16.4 | 17.9 µM (inactive) | 2.11 µM (inactive) | 11.3 µM (inactive) | 15.7 µM (inactive) | 7.94 µM (inactive) | 16.8 µM (inactive) | 15 µM (inactive) | 15.2 µM (inactive) | 1.89 µM (inactive) | 17.7 µM (inactive) | 17.9 µM (inactive) | 1.99 µM (inactive) | 13.7 µM (inactive) | 17.9 µM (inactive) | 12.4 µM (inactive)
COc1cc(C2c3cc4c(cc3[C@@H](Nc3ccc(C#N)cc3)C3COC(=O)[C@H]23)OCO4)cc(OC)c1O (stereo partly drawn) | 0.436 µM (active) | 6.38 µM (inactive) | 0.273 µM (active) | 2.31 | 0.143 µM (active) | 5.09 µM (inactive) | 6.78 µM (inactive) | 5.33 µM (inactive) | 6.21 µM (inactive) | 1.88 µM (inactive) | 14.4 µM (inactive) | 0.155 µM (active) | 1.41 µM (inactive) | 2.43 µM (inactive) | 0.661 µM (active) | 1.05 µM (active) | 0.261 µM (active) | 0.889 µM (active) | 7.82 µM (inactive)
COc1ccc(OC)c2sc(N3C(=O)/C(=C/c4ccc(Cl)cc4)N=C3c3ccccc3)nc12 | > 100 µM (inactive) | > 100 µM (inactive) | > 100 µM (inactive) | 98.4 | 40.6 µM (inactive) | > 100 µM (inactive) | 85.9 µM (inactive) | 60 µM (inactive) | 34.2 µM (inactive) | 48.9 µM (inactive) | 46.3 µM (inactive) | 33.7 µM (inactive) | 78.5 µM (inactive) | 98.9 µM (inactive) | 65 µM (inactive) | > 100 µM (inactive) | 43.4 µM (inactive) | 67.9 µM (inactive) | 72.6 µM (inactive)
CCCCC(C#N)(OP1(=O)OC(c2ccccc2)C(C)N1C)c1ccccc1 (stereo not drawn) | 18.7 µM (inactive) | 17.8 µM (inactive) | 19.7 µM (inactive) | 20.3 | 14.4 µM (inactive) | 16.3 µM (inactive) | 16.7 µM (inactive) | 19.6 µM (inactive) | 16.4 µM (inactive) | 17.2 µM (inactive) | 16.6 µM (inactive) | 20.8 µM (inactive) | 16.6 µM (inactive) | 17.4 µM (inactive) | 17.3 µM (inactive) | 16.7 µM (inactive) | 19.9 µM (inactive) | 16.4 µM (inactive) | 18.9 µM (inactive)
O=C1CSC2=NC3=C(COC/C3=C\c3ccc(F)cc3)C(c3ccc(F)cc3)N12 (stereo not drawn) | > 100 µM (inactive) | 42.8 µM (inactive) | 35.2 µM (inactive) | 37.2 | 12.6 µM (inactive) | > 100 µM (inactive) | 86.7 µM (inactive) | 75 µM (inactive) | 41.7 µM (inactive) | 28.2 µM (inactive) | 49.7 µM (inactive) | 14.9 µM (inactive) | 59.8 µM (inactive) | > 100 µM (inactive) | 71.4 µM (inactive) | > 100 µM (inactive) | 20.7 µM (inactive) | 46 µM (inactive) | 99.5 µM (inactive)
Nc1c2c(nc3ccccc13)-c1ccccc1NCCC2 | 30.8 µM (inactive) | 16.8 µM (inactive) | 59.7 µM (inactive) | 35.6 | 18.4 µM (inactive) | 56.5 µM (inactive) | 33.3 µM (inactive) | 35.2 µM (inactive) | 17.5 µM (inactive) | 26.9 µM (inactive) | 78.2 µM (inactive) | 20.2 µM (inactive) | 16.1 µM (inactive) | 45.1 µM (inactive) | 15.1 µM (inactive) | 33.3 µM (inactive) | 17.9 µM (inactive) | 23.4 µM (inactive) | 19 µM (inactive)
CC[C@H]1C=CCC[C@@]2(C[C@@H]3CC[C@@H]4[C@H](C(=O)OCCCCCCCCCCCCCCCC(=O)N(CCCNC(C)=O)C[C@H](CCNC(C)=O)OC(C)=O)[C@]5(CCC[C@@H](C)O5)NC(=[N+]34)N2)O1 | 0.561 µM (active) | 0.0395 µM (active) | 0.0918 µM (active) | 0.904 | 0.0745 µM (active) | 0.391 µM (active) | 0.0583 µM (active) | 0.0847 µM (active) | 0.0466 µM (active) | 0.0331 µM (active) | 0.158 µM (active) | 0.0312 µM (active) | 0.187 µM (active) | 0.187 µM (active) | 0.124 µM (active) | 0.516 µM (active) | 0.0394 µM (active) | 0.264 µM (active) | 0.759 µM (active)

Reference: ChEMBL document CHEMBL1201862, “PubChem BioAssay data set” (2004)
